Results on 87 compounds are retold here after a melting point compilation (Tetko et al.; mined from patent text by program, amines drawn as free bases though some values may be those of a salt).

The melting point is the temperature, or range, at which the solid turns liquid. In turn, `CC1CCCN(S(=O)(=O)c2cc(Cl)cc(C(=O)O)c2)C1` (configuration not stated) registered a melting point of 177 to 179 °C.
With `N=C(Nc1cccc(NC(=O)/C=C/c2cccc(Cl)c2)c1)c1ccccc1`, the melting point was 260 to 262 °C.
Next, `O=C1CCC(C(=O)O)(c2ccccc2)CC1`: 136 to 140 °C; `C=CCOc1ccc(C(=O)C=Cc2c(OC)cccc2OC)cc1`: 102 to 103 °C.
With `C#CCN(c1ccc(C(=O)NC(CCc2nnn[nH]2)C(=O)O)cc1)C(C)c1cc2c(=O)[nH]c(C)nc2cc1C` (configuration not stated) the figure was 207 °C; with `Cc1ccc(C(NCC(=O)Nc2c(C(C)C)cccc2C(C)C)c2ccccc2)cc1` (configuration not stated), 165 to 166 °C.
For `NCCNc1ccc(NCCO)cc1[N+](=O)[O-]`, the melting point amounted to 112 °C.
Next, `Nc1cc(I)c(I)cc1[N+](=O)[O-]`: 196 to 197 °C; `COc1ccc2c(c1)S(=O)(=O)N(C(C)C)C2=O`: 188 °C.
With `Cn1c(-c2ccc(-c3ccco3)cc2)cnc1[C@H](Cc1ccccn1)N(C=O)c1cc2cc(Cl)ccc2o1` the figure was 144 to 146 °C.
The compound `CCN1CCc2ccc(Nc3ncc(C#N)c(Nc4ccccc4C(=O)NC)n3)cc2CC1` gave a melting point of 164 to 170 °C.
Next, `NCc1ccc(C2CCN(c3c(F)c(N)c4c(=O)c(C(=O)O)cn(C5CC5)c4c3F)C2)cc1` (configuration not stated): 225 to 227 °C; `CCCCN(Cc1ccc(-c2ccccc2S(=O)(=O)NC(=O)c2ccccc2Cl)cc1)C(=O)N(C)c1ccccc1C(F)(F)F`: > 60 °C; `Cc1ccc(C2(Cl)c3ccccc3C(=O)c3ccccc32)cc1`: 136 to 140 °C.
The compound `COc1cc(CC(=O)NCCOc2ccc(C(=O)O)cc2[N+](=O)[O-])ccc1NC(=O)Nc1ccccc1C` displayed a melting point of 112 to 115 °C.
With `CC(=O)Nc1cccc(C2CCNCC2)c1` the figure was 102 to 104 °C; with `C#CCCCc1c2c(nn1CCC)c(N)nc1ccccc12`, 144 to 145 °C.
Next, `CC(C)(C)OC(=O)N1CCN(c2nccc(Oc3ccc(NC(=O)c4cc(F)cc(N5CCCCC5)c4)c4ccccc34)n2)CC1`: 175 to 177 °C; `COC(=O)CCc1cc2cc(Cl)ccc2n1S(=O)(=O)c1ccccc1`: 93 to 96 °C; `O=C(O)C=C(c1ccccc1)c1ccc([N+](=O)[O-])cc1`: 188 to 189 °C.
In the case of `CCNC(=O)NCCC1CCc2ccc3nc(C)oc3c21` (configuration not stated), the melting point was in the range of 136 to 138 °C.
Compound `O=C1N(Cc2ccc3nsnc3c2)c2ccccc2C12COc1cc3c(cc12)CCO3` (configuration not stated) returned a melting point of 162 to 164 °C.
With `N#CCC(O)(c1ccc(Br)cc1)c1cccnc1` (configuration not stated) the figure was 158 to 161 °C; with `O=C(N[C@H](Cc1cccc(OCC(F)(F)F)c1)[C@@H](O)c1ccc(F)cc1)c1cccc2c1C=CCCC2` (racemic), 172 to 173 °C.
Compound `O=C1CCC(c2ccc(Cl)c(Cl)c2)O1` (configuration not stated) yielded a melting point of 54 to 55 °C.
`COC(=O)C(O)C(O)C1CC1` (configuration not stated) came in with a melting point of 54 to 57 °C.
The compound `CCC(=O)N(c1ccc(C#N)cc1)c1c(NC(C)C(C)(C)C)c(=O)c1=O` (configuration not stated) displayed a melting point of 211 to 214 °C.
Next, `O=C(Nc1cc(-c2nc(Cc3ccccc3)c[nH]2)ccn1)c1ccccc1`: 110 to 112 °C.
Next, `COc1cc(OC)nc(NC(=O)NS(=O)(=O)Nc2ccc(F)cc2C(=O)C2CC2)n1`: 76 to 78 °C.
Next, `O=C1CCC(c2ccc(O)cc2)=NN1`: 157 to 159 °C; `CC1(CS)C(=O)N2CCCC(C(=O)O)N2C1=O` (configuration not stated): 209 to 211 °C; `Cc1ccccc1CNC(=O)c1cc(C)c([N+](=O)[O-])c(C)c1`: 202 to 203 °C.
`COC1C(OC(=O)c2ccccc2)C=C(C)C(=O)CC1(C)C` (configuration not stated): the melting point lay in the range of 97 to 98 °C.
In the case of `CCOC(=O)N1CCC(N)(CC#N)CC1`, the melting point was 68 to 69 °C.
With `CC1Cc2cc3c(cc2C(c2ccc(N)cc2)=NN1)OCO3` (configuration not stated) the figure was 118 to 120 °C.
With `NCC1=CC(c2ccccc2)Cc2c(O)cccc21` (configuration not stated) the figure was 102 to 104 °C; with `COc1ccc2c(c1)c(-c1[nH]c3ncccc3c1F)cn2C`, 248 to 250 °C; with `COc1ccccc1C1=Nc2ccc(C(=O)O)cc2C(=O)C1`, 290 to 294 °C.
With `Oc1ccc(O)c(-c2nc3ccc(O)cc3o2)c1` the figure was 278 to 280 °C.
For `CCOCN1C(C)=C(C(=O)O)[C@H](c2cccc([N+](=O)[O-])c2)C(C(=O)OCOC(=O)C(C)(C)C)=C1C`, the melting point was 85 to 86 °C.
Compound `COc1cccc(-c2cc(=O)c3cccc(C(=O)Nc4ccc(CCCCN5CCc6cc(OC)c(OC)cc6C5)cc4)c3[nH]2)c1` had a melting point of 116 °C.
On to `CC(C)[C@H](NC(=O)N(C)Cc1nccs1)C(=O)N[C@@H](Cc1ccccc1)C[C@H](O)[C@H](Cc1ccccc1)NC(=O)[C@@H](NC(=O)N(C)Cc1nccs1)C(C)C`, for which the melting point lay within 195 to 197 °C.
Next, `C[C@H]1[C@H](N)CN1c1c(F)c(N)c2c(=O)c(C(=O)O)cn(C3CC3)c2c1F` (relative stereo): 206 to 210 °C; `Cc1ccc(OCCOS(N)(=O)=O)cc1`: 108 to 110 °C; `CCOC(=O)COc1ccc(CCC(=O)OC)cc1[N+](=O)[O-]`: 70 to 72 °C.
With `CSC=CC(C)(C)C(=O)Nc1ccc(Cl)cc1` the figure was 105 to 106 °C; with `FC(F)(F)c1nncn1-c1ccccc1`, 80 °C.
Regarding `CC(C)(C)c1ccc2c(c1)C(C(=O)O)=Cc1ccccc1O2`, the melting point amounted to 72 °C.
Next, `COc1ccc(-n2nc(OC)cc2-c2ccc(OCCNC(N)=S)cc2)cc1`: 142 °C; `CCOC(=O)N1Cc2cc(=O)[nH]nc2C(C)C1` (configuration not stated): 125 to 127 °C; `CC(C)[Si](C#Cc1ccc2c(c1)c1cccc3c1c2c1cccc2c4cc(C#C[Si](C(C)C)(C(C)C)C(C)C)ccc4c3c21)(C(C)C)C(C)C`: > 300 °C.
With `O=Cc1cn(Cc2ccc(OCc3ccccc3)cc2)cc1-c1ccccc1` the figure was 100 to 101 °C.
The compound `Nc1nc(NCC2CC2)c2ncn(C3C=CC(CO)C3)c2n1` (configuration not stated) registered a melting point of 130 to 131 °C.
Regarding `O=C=NC1(N=NC2(N=C=O)CCCCC2)CCCCC1`, the melting point was 38 to 40 °C.
Compound `Cn1c(-c2ccc(F)cc2)c(OCCOc2ccc(C=C3SC(=O)NC3=O)cc2)c(=O)c2ccccc21` yielded a melting point of 225 to 228 °C.
On to `CCc1cc2c([nH]c1=O)c(C)cc1cc(CBr)oc12`, for which the melting point was 237 to 240 °C.
Next, `CCOC(=O)C(=O)Nc1ccc(C#N)cc1`: 188 °C; `O=C(O)c1cccc(C(=O)O)c1Nc1ccc(I)cc1`: 241 to 243 °C.
Next, `COc1ccc2c(c1)C(=O)N(c1ccc3cnn(C)c3c1)C2`: 175 to 177 °C; `CCC(=O)OCC(OC(=O)CC)C1OC(OC(=O)CC)C(OC(=O)CC)C1OC(=O)CC` (configuration not stated): 74.5 to 75.5 °C.
Regarding `c1csc(-c2coc(COc3ccc(CCCn4ccnc4)cc3)n2)c1`, the melting point was 123 to 124 °C.
Next, `CN(C)CCSc1sc(-c2cc[nH]n2)c2c1C(=O)CC(C)(C)C2`: 212 to 214 °C.
In turn, `COc1cc(C(C)=O)ccc1OCCCCl` yielded a melting point of 57.8 to 58.5 °C.
With `N#Cc1c(N2CCNCC2)c2cc(F)ccc2n(Cc2ccc(F)cc2)c1=O`, the melting point worked out at 240 °C.
Consider `CCOC(=O)c1cc(CC)sc1Nc1ccc(Br)cc1[N+](=O)[O-]`, for which the melting point lay in the range of 76 to 78 °C.
The compound `O=c1[nH][nH]c(=O)c2c(O)c3ccc(I)cc3nc12` displayed a melting point of 243 to 244 °C.
As to `COc1cccc2c(CC(=O)O)coc12`, the melting point fell in the range of 143 to 145 °C.
With `COC(=O)CCc1cc2cc(Cl)ccc2n1S(=O)(=O)c1ccc2c(c1)CCN2C(C)=O` the figure was 129 °C; with `Cc1ccc(Nc2nc(=O)c3cccnc3s2)cc1`, 208 to 209 °C.
In the case of `O=C(O)C(=Cc1c[nH]c2ncccc12)c1ccccc1`, the melting point is > 230 °C.
With `CC(=O)N1CCN(C(=O)Cc2ccc(Cl)c(Cl)c2)C(CN2CCC(O)C2)C1` (configuration not stated) the figure was 133 °C; with `CC(C(=O)N1CCCc2ccccc21)N(C(=O)CN1C(=O)c2ccccc2C1=O)c1ccccc1` (racemic), 191 °C.
For the compound `CN1CC=C(c2c[nH]c3ccc(NC(N)=S)cc23)CC1`, the melting point is 209 to 211 °C.
With `CCCCCCCCCCCCCCOc1ccc(CNc2ccccc2)cc1` the figure was 58 to 59 °C; with `Cc1nc(NCCc2ccccc2)sc1-c1ccnc(Nc2ccc(N3CCN(Cc4ccccc4)CC3)cc2)n1`, 191 to 192 °C.
`CCC(=O)C1=C(O)CC(c2cc3ccccc3cc2C)CC1=O` (configuration not stated): the melting point came out at 118 °C.
`O=CNc1nc2c(s1)-c1nc(-c3ccccc3)ncc1CC2` returned a melting point of 304 to 306 °C.
As for `COc1cc2[nH]c(C)c(CCN3CCN(NC(=O)c4ccc(F)cc4)CC3)c2cc1OC`, the melting point was 116 to 119 °C.
Next, `COc1cc(C(=O)NS(=O)(=O)c2ccccc2)ccc1Cn1ncc2ccc(NC(=O)CC3CCCC3)cc21`: 167 to 169 °C.
The compound `CC1CCN(CCCC(=O)c2ccc3oc4ccc(C(=O)CCCN5CCC(C)CC5)cc4c3c2)CC1` registered a melting point of 72 to 73 °C.
With `CCCCOc1ccc(C=C2C(=O)C3(C)CCC2C3(C)C)cc1` (configuration not stated) the figure was 62 °C; with `Fc1cccc(CCc2nnc(-c3ccnc(NCCCc4ccccc4)c3)o2)c1`, 91 to 92 °C; with `CCc1nn2c(-c3ccc(Cl)cc3Cl)nc(C)nc2c1C(CC)CC`, 91 to 93 °C.
With `CC1CN(c2c(F)cc3c(=O)c(C(=O)O)cn(CCF)c3c2F)CC1CN` (configuration not stated) the figure was 228 to 232 °C.
In the case of `N#Cc1ccc(OCCCCl)cc1`, the melting point was 40 to 44 °C.
As for `O=c1[nH]c2cc(Cl)c(Cl)cc2n1CCCBr`, the melting point was found to be 198 °C.
With `CCOC(=O)C1=C(C)NC(C)=C(C(=O)OCCN2CCC(C(c3ccccc3)c3ccccc3)CC2)C1c1cccc(Cl)c1Cl` (configuration not stated) the figure was 81 to 85 °C.
